Measured values reported in EP4667466A1, “PROTAC DEGRADERS OF MLLT1 AND/OR MLLT3” (priority 2024, dated 2025).

How the values were obtained:
[1] = target: T1, MLLT1 (Homo sapiens, UniProt Q03111); assay: MLLT1 degradation assay (JESS automated chemiluminescent detection) in MV4-11 cells; type: cell-based; conditions: 24h, with respect to DMSO control
T1 construct: endogenous in cells; host or cells: MV4-11 (ATCC CRL-9591)
T1 sequence (Q03111 1-559): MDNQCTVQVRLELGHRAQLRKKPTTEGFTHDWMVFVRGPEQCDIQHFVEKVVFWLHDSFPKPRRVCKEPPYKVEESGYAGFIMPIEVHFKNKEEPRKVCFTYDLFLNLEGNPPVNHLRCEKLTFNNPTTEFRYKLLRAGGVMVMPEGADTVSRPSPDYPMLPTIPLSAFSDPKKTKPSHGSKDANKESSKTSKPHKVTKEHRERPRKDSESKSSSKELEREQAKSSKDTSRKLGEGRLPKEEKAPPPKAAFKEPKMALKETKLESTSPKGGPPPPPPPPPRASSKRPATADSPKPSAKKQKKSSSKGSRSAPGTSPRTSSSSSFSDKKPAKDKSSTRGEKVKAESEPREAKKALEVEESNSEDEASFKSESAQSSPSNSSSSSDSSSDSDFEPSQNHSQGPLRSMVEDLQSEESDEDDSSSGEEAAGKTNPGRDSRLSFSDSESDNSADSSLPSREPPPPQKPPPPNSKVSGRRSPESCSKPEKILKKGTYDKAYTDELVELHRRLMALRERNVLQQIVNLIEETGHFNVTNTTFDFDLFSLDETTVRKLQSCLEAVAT
How it was run: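 MV4-11 cells were treated with 1000, 100 or 10 nM compound (0.1% DMSO) for 24 h at 37 °C. Lysates (4 µg protein) were probed for MLLT1 and GAPDH by JESS capillary chemiluminescence. Degradation was calculated from band peak areas versus DMSO control and binned into categories A–D.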

[2] = system: MV4-11 cells; assay: MV4-11 cellular proliferation assay, Assay Format A (CellTiter-Glo, 120 hours); type: cell-based; conditions: Homo sapiens, Assay method A, read-out: MV4-11 antiproliferative IC50
Procedure: An MV4-11 proliferation assay was used to test the ability of compounds to reduce cell viability.
After 120 hours of treatment, cells were incubated for 10 min at RT with the CellTiter-Glo (CTG) reagent (G7571, Promega). Measurement of the luminescence signal was performed on a microplate reader (Ensight, PerkinElmer). CTG reagent measures the amount of ATP, which is directly proportional to the number of cells, to determine the number of viable cells in culture.
The data were analysed as follows: Data normalization, N(x) = (x−〈cr〉)/(〈sr〉−〈cr〉) × 100 [formula] where x is the measured raw signal value of a well, (cr) is the median of the measured signal values for the Central Reference (DMSO) wells on a plate, (sr) is the median of the measured signal values for the Scale Reference (reference compound) wells on a plate. Curve fitting, S0 + (Sinf −S0)/(1 + (((AC50)/(10^c)))^n) [formula] where the experimental set-up assumes the Hill parameters in certain ranges: S0 ~ Central Reference (CR) from normalization (= Bottom), Sinf ~ Scale Reference (SR) from normalization (= Top), nHill ~ 1, AC50 ~ within the measured concentration range.

SMILES | inhibition at 0.01 µM [1] [%] | inhibition at 0.1 µM [1] [%] | inhibition at 1 µM [1] [%] | IC50 [2] [nM]
Cc1nn(CCCCC#Cc2cccc3c2CN(C2CCC(=O)NC2=O)C3=O)c2cc(C(=O)Nc3cc4[nH]c([C@H]5CCCN5C)cc4cn3)ccc12 (stereo partly drawn) [Example 46, 1-(6-(2-(2,6-dioxopiperidin-3-yl)-1-oxoisoindolin-4-yl)hex-5-yn-1-yl)-3-methyl-N-(2-((R)-1-methylpyrrolidin-2-yl)-1H-pyrrolo[3.2-c]pyridin-6-yl)-1H-indazole-6-carboxamide] | ≥ 75 | ≥ 75 | 50 to 75 | 7
Cc1nn(CCCCCCCCNc2ccc3c(c2)C(=O)N(C2CCC(=O)NC2=O)C3=O)c2cc(C(=O)Nc3cc4[nH]c([C@@H]5CCCN5C)cc4cn3)ccc12 (stereo partly drawn) [Example 15, 1-(8-{[2-(2,6-dioxopiperidin-3-yl)-1,3-dioxoisoindol-5-yl]amino}octyl)-3-methyl-N-{2-[(2S)-1-methylpyrrolidin-2-yl]-1H-pyrrolo[3,2-c]pyridin-6-yl}indazole-6-carboxamide] | < 25 | ≥ 75 | ≥ 75 | 12
Cc1nn(CCCC#Cc2cccc3c2CN(C2CCC(=O)NC2=O)C3=O)c2cc(C(=O)Nc3cc4[nH]c([C@H]5CCCN5C)cc4cn3)ccc12 (stereo partly drawn) [Example 32, 1-(5-(2-(2,6-dioxopiperidin-3-yl)-1-oxoisoindolin-4-yl)pent-4-yn-1-yl)-3-methyl-N-(2-((R)-1-methylpyrrolidin-2-yl)-1H-pyrrolo[3,2-c]pyridin-6-yl)-1H-indazole-6-carboxamide] | 50 to 75 | ≥ 75 | 50 to 75 | 15
Cc1nn(CCCCCC#Cc2cccc3c2CN(C2CCC(=O)NC2=O)C3=O)c2cc(C(=O)Nc3cc4[nH]c([C@H]5CCCN5C)cc4cn3)ccc12 (stereo partly drawn) [Example 30, 1-(7-(2-(2,6-dioxopiperidin-3-yl)-1-oxoisoindolin-4-yl)hept-6-yn-1-yl)-3-methyl-N-(2-((R)-1-methylpyrrolidin-2-yl)-1H-pyrrolo [3,2-c]pyridin-6-yl)-1H-indazole-6-carboxamide] | ≥ 75 | ≥ 75 | ≥ 75 | 6
Cc1nn(CCCCCCC#Cc2cccc3c2CN(C2CCC(=O)NC2=O)C3=O)c2cc(C(=O)Nc3cc4[nH]c([C@H]5CCCN5C)cc4cn3)ccc12 (stereo partly drawn) [Example 45, 1-(8-(2-(2,6-dioxopiperidin-3-yl)-1-oxoisoindolin-4-yl)oct-7-yn-1-yl)-3-methyl-N-(2-((R)-1-methylpyrrolidin-2-yl)-1H-pyrrolo[3,2-c]pyridin-6-yl)-1H-indazole-6-carboxamide] | ≥ 75 | ≥ 75 | ≥ 75 | 10
Cc1nn(CCCCCCNc2cccc3c2C(=O)N(C2CCC(=O)NC2=O)C3=O)c2cc(C(=O)Nc3cc4[nH]c([C@H]5CCCN5C)cc4cn3)ccc12 (stereo partly drawn) [Example 22, 1-(6-{[2-(2,6-dioxopiperidin-3-yl)-1,3-dioxoisoindol-4-yl]amino}hexyl)-3-methyl-N-{2-[(2R)-1-methylpyrrolidin-2-yl]-1H-pyrrolo[3,2-c]pyridin-6-yl}indazole-6-carboxamide] | ≥ 75 | ≥ 75 | ≥ 75 | 8
[2H]C([2H])([2H])N1CCC[C@@H]1c1cc2cnc(NC(=O)c3ccc4c(C)nn(CCCCCCCC#Cc5cccc6c5CN(C5CCC(=O)NC5=O)C6=O)c4c3)cc2[nH]1 (stereo partly drawn) [Example 44, 1-(9-(2-(2,6-dioxopiperidin-3-yl)-1-oxoisoindolin-4-yl)non-8-yn-1-yl)-3-methyl-N-(2-((R)-1-(methyl-d3)pyrrolidin-2-yl)-1H-pyrrolo[3,2-c]pyridin-6-yl)-1H-indazole-6-carboxamide] | 50 to 75 | ≥ 75 | ≥ 75 | 5
Cc1nn(CCOCCNc2cccc3c2C(=O)N(C2CCC(=O)NC2=O)C3=O)c2cc(C(=O)Nc3cc4[nH]c([C@H]5CCCN5C)cc4cn3)ccc12 (stereo partly drawn) [Example 26, 1-(2-(2-((2-(2,6-dioxopiperidin-3-yl)-1,3-dioxoisoindolin-4yl)amino)ethoxy)ethyl)-3-methyl-N-(2-((R)-1-methylpyrrolidin-2-yl)-1H-pyrrolo[3,2-c]pyridin-6-yl)-1H-indazole-6-carboxamide] | – | ≥ 75 | ≥ 75 | 14
Cc1nn(C2CCN(CC3CCN(c4cc5c(cc4F)C(=O)N(C4CCC(=O)NC4=O)C5=O)CC3)CC2)c2cc(C(=O)Nc3cc4[nH]c([C@H]5CCCN5C)cc4cn3)ccc12 (stereo partly drawn) [Example 69, 1-(1-((1-(2-(2,6-dioxopiperidin-3-yl)-6-fluoro-1,3-dioxoisoindolin-5-yl)piperidin-4-yl)methyl)piperidin-4-yl)-3-methyl-N-(2-((R)-1-methylpyrrolidin-2-yl)-1H-pyrrolo[3,2-c]pyridin-6-yl)-1H-indazole-6-carboxamide] | ≥ 75 | ≥ 75 | ≥ 75 | –
Cc1nn(CCCCCCCC#Cc2cccc(C(=O)N[C@H]3CCC(=O)NC3=O)c2F)c2cc(C(=O)Nc3cc4[nH]c([C@H]5CCCN5C)cc4cn3)ccc12 [Example 51, 1-(9-(3-(((S)-2,6-dioxopiperidin-3-yl)carbamoyl)-2-fluorophenyl)non-8-yn-1-yl)-3-methyl-N-(2-((R)-1-methylpyrrolidin-2-yl)-1H-pyrrolo[3,2-c]pyridin-6-yl)-1H-indazole-6-carboxamide] | 25 to 50 | 50 to 75 | ≥ 75 | –
Cc1nn(CCCCCCCC#Cc2cc3c(cc2F)c(N2CCC(=O)NC2=O)nn3C)c2cc(C(=O)Nc3cc4[nH]c([C@H]5CCCN5C)cc4cn3)ccc12 [Example 65, (R)-1-(9-(3-(2,4-dioxotetrahydropyrimidin-1(2H)-yl)-5-fluoro-1-methyl-1H-indazol-6-yl)non-8-yn-1-yl)-3-methyl-N-(2-(1-methylpyrrolidin-2-yl)-1H-pyrrolo[3,2-c]pyridin-6-yl)-1H-indazole-6-carboxamide] | 25 to 50 | 50 to 75 | ≥ 75 | –
Cc1nn(CCCOCC#Cc2cccc3c2CN(C2CCC(=O)NC2=O)C3=O)c2cc(C(=O)Nc3cc4[nH]c([C@H]5CCCN5C)cc4cn3)ccc12 (stereo partly drawn) [Example 31, 1-(3-((3-(2-(2,6-dioxopiperidin-3-yl)-1-oxoisoindolin-4-yl)prop-2-yn-1-yl)oxy)propyl)-3-methyl-N-(2-((R)-1-methylpyrrolidin-2-yl)-1H-pyrrolo[3,2-c]pyridin-6-yl)-1H-indazole-6-carboxamide] | 25 to 50 | 50 to 75 | ≥ 75 | –
Cc1nn(C2CCC(CCCC#Cc3cccc4c3CN(C3CCC(=O)NC3=O)C4=O)CC2)c2cc(C(=O)Nc3cc4[nH]c([C@H]5CCCN5C)cc4cn3)ccc12 (stereo partly drawn) [Example 74, 1-(4-(5-(2-(2,6-dioxopiperidin-3-yl)-1-oxoisoindolin-4-yl)pent-4-yn-1-yl)cyclohexyl)-3-methyl-N-(2-((R)-1-methylpyrrolidin-2-yl)-1H-pyrrolo[3,2-c]pyridin-6-yl)-1H-indazole-6-carboxamide] | 50 to 75 | 50 to 75 | ≥ 75 | –
Cc1nn(CCOCCN2CCN(c3cc4c(cc3F)C(=O)N(C3CCC(=O)NC3=O)C4=O)CC2)c2cc(C(=O)Nc3cc4[nH]c([C@H]5CCCN5C)cc4cn3)ccc12 (stereo partly drawn) [Example 24, 1-(2-(2-(4-(2-(2,6-dioxopiperidin-3-yl)-6-fluoro-1,3-dioxoisoindolin-5-yl)piperazin-1-yl)ethoxy)ethyl)-3-methyl-N-(2-((R)-1-methylpyrrolidin-2-yl)-1H-pyrrolo[3,2-c]pyridin-6-yl)-1H-indazole-6-carboxamide] | – | 50 to 75 | ≥ 75 | –
Cc1c2ccc(C(=O)Nc3cc4[nH]c([C@H]5CCCN5C)cc4cn3)cc2nn1CCCCCCCCNc1cccc2c1C(=O)N(C1CCC(=O)NC1=O)C2=O (stereo partly drawn) [Example 5, 2-(8-((2-(2,6-dioxopiperidin-3-yl)-1,3-dioxoisoindolin-4-yl)amino)octyl)-3-methyl-N-(2-((R)-1-methylpyrrolidin-2-yl)-1H-pyrrolo[3,2-c]pyridin-6-yl)-2H-indazole-6-carboxamide] | 50 to 75 | 50 to 75 | 25 to 50 | –
